According to US20260345584A1, “METHODS AND PHARMACEUTICAL COMPOSITIONS FOR TREATING CHEMOTHERAPY-INDUCED PERIPHERAL NEUROPATHY WITH EG5 INHIBITORS” (UNIVERSITY OF MIAMI, priority 2023, published 2026):

How the values were obtained:
[1] = tested on: caudal fin keratinocytes (dfMTs); assay: dfMT formation (detyrosinated fasciculated looped microtubules) in zebrafish caudal fin keratinocytes; type: in vivo
Protocol: (§1) The stock solution was divided into 20-30 μl aliquots and stored at −20 °C until use (maximal 6 months). Immediately prior to use, paclitaxel was diluted in Ringer's solution and added to dechorionated larval zebrafish. The larval fish were placed individually or in small groups into wells of a 12-well plate containing the treatment solutions. The control group was 0.05% DMSO. Plates were incubated at 28.5 °C and protected from light. Treatment lengths are indicated in the Drawings, Description of the Drawings, and Examples where appropriate. […] EMD534085, Eg5 inhibitor (MedChemExpress, Cat. No. HY-15000) was diluted in 100% DMSO to make a 10 mM stock solution and stored at −20 °C. […] The solutions were exchanged every 48 hr.
(§2) Larval fish were transferred into […] glass vials and fixed in 4% paraformaldehyde (PFA)/1× Phosphate-buffered saline (PBS) for 1.5 hr at room temperature, with gentle rocking. Following a 5-minute incubation in 1×PBS+0.1% Tween-20 (PBST), zebrafish were permeabilized in 1×PBS+0.1% Triton X-100 for 10-30 min. Larval fish were transferred into 2 ml reaction tubes and incubated in blocking buffer (1×PBST+5% BSA) for 30 min at room temperature, with rocking. Larval fish were further incubated overnight in antibody solution (Millipore Sigma, Cat. No. AB3201, 1:300 rabbit anti-GluTub; Sigma, Cat No. T6793, 1:500 mouse anti-acetylated tubulin) in blocking buffer at 4 °C, on a rotator. The next morning, larval fish were transferred into 6-well plates and washed 4×15 min in 1×PBST at room temperature, with rocking. This was followed by incubation in secondary antibody (goat anti-rabbit Cy5, Abcam, Cat. No. ab97077; goat anti-mouse Cy3, Abcam, Cat. No. ab97035) and 1:10,000 Hoechst 33342 (ThermoFisher Scientific, Cat. No. 62249, 20 mM solution) in blocking buffer for 1 hr at room temperature, with rocking. Fish were covered to avoid bleaching. Fish were washed for 4×15 min in 1×PBST at room temperature, with rocking, and immediately mounted for imaging on glass bottom petri dishes (Spectrum Laboratory Products, Cat. No. 750-10403-UE) using 1% agarose (Thermo Fisher Scientific, Cat. No. 16520050). A 1:200 dilution was used for mouse alpha-tubulin antibody (Proteintech, Cat. No. 66031-1) and a 1:1,000 dilution of donkey anti-mouse IgG Alexa488 (ThermoFisher Scientific, Cat. No. A-21202) for secondary detection. For Nox1 immunostaining, a 1:300 dilution of primary antibody (Anti-NOX1 Rabbit Polyclonal Antibody, Avantar, Cat. No. 102164-796) and a 1:1,000 dilution of secondary goat anti-rabbit Cy2 (Abcam, Cat. No. ab6940) antibody was used. Eg5 antibody (Abcam, Cat. No. 61199) was used at a 1:100 and secondary goat anti-rabbit Cy2 (Abcam, Cat. No. ab6940) at 1:1,000 dilution.
CRISPR oligos targeting kif11 were designed using the IDT CRISPR design tool (https://www.idtdna.com/site/order/designtool/index/CRISPR_CUSTOM). The oligo (5′-[…] (SEQ ID NO: 21) was designed to anneal within exon 5 of 23 exons total in zebrafish kif11 with expected mutations ~ position 270 bp in the sequenced region using the following primers for PCR amplification: Fwd 5′-[…]-3′ (SEQ ID NO: 22) and Rev 5′-[…]-3′ (SEQ ID NO: 23). The forward primer was used for sequencing and yielded deletions in transiently injected embryos, as shown in example below in which single zebrafish were sequenced (FIG. 10).
The CRISPR oligo was injected using the Alt-R system (IDT, https://www.idtdna.com/pages/technology/crispr/crispr-genome-editing/Alt-R-systems/cas9), which has provided highly reliable and efficient zebrafish knockout results as used herein. The IDT-recommended protocol (below) was used for CRISPR oligo preparations. Fertilized eggs were injected ~15 minutes post fertilization with CRISPR oligos to ensure maximal efficiency.
Cell counting in the caudal fin was performed in three 100 μm^2 boxes in the dorsal, medial and ventral caudal fin (~100 μm from the edge). […]

cutaneous sensory axons = assay: Axon branch number in caudal fin (acetylated tubulin staining); type: in vivo, zebrafish; settings: for axon branch number: 96 hr; for axon branches in the caudal fin: 96 hr paclitaxel
Protocol: as §1, §2
Axon branch number quantifications were performed by drawing a 50 μm line across the dorsal, medial, and ventral caudal fin edge region at a distance of 100 μm parallel to the fin edge (which was determined to be the most reliable region to quantify distal branch numbers). Axons traversing this line were counted and averaged per treatment group. Axonal fluorescence measurements were taken using the Imaris Spots function by manually placing spots along the axon and using the fluorescence intensity profile measurements MatLab tool.
Stretching was performed after 96 hr treatment, followed by 2 hr post-stretch fixation, and staining for detection of acetylated tubulin in axons.
To further validate Eg5 as the pharmacological target of EMD534085 in axon regeneration, zebrafish injected with kif11 CRISPR oligo were also analyzed.

[2] = tested on: caudal fin keratinocytes (cell death); assay: Keratinocyte cell death, 12 hr time-lapse imaging; type: in vivo, zebrafish
Protocol: Fish were anesthetized in 2-phenoxyethanol (1:1000) in Ringer's solution prior to imaging and mounted in 1.2% agarose. EB3-GFP and Tau-Bfp2 were imaged with a scan speed kept at the maximum level in single slice mode with […] for a total of 60s to capture microtubule dynamics. h2a:H2A-GFP time-lapse recordings were produced (Zeiss LSM880 AiryScan confocal microscope) with 1 μm sections recorded every 10 min for 12 hr using 800×800 pixels. All other live fish were imaged using 1024×1024 pixels.
Cell divisions and cell death were manually counted in 12 hr movie recordings. The caudal fin was divided into 6 quadrants and individual cells in each quadrant were manually followed over 12 hr at least 3 times sequentially to capture cell divisions and dying cell behaviors.

Question: How did the “animals with dfMTs” value ([1]; 25 μM EMD534085 alone) turn out when `CN(C)CCNC(=O)NC[C@H]1CC[C@@H]2[C@H](O1)c1cc(C(F)(F)F)ccc1N[C@H]2c1ccccc1` [EMD534085] was run?
Answer: 0%

Question: And the “number of dfMT-harboring keratinocytes per animal” value ([1]; EMD534085 alone, 96 hr)?
Answer: 0±0 cells/animal

Question: And the axon branch number (cutaneous sensory axons; EMD534085 alone)?
Answer: 10.25±0.47 branches/50 μm

Question: What about the cell death ([2]; EMD534085 alone, 96 hr) of the same molecule?
Answer: 0.81±0.26 dying cells/caudal fin

Question: Which results are given for `CC(=O)O[C@H]1C(=O)[C@@]2(C)[C@H]([C@H](OC(=O)c3ccccc3)[C@]3(O)C[C@H](OC(=O)[C@H](O)[C@@H](NC(=O)c4ccccc4)c4ccccc4)C(C)=C1C3(C)C)[C@]1(OC(C)=O)CO[C@@H]1C[C@@H]2O` [paclitaxel]?
Answer: dfMT-positive keratinocytes ([1]; 100 nM paclitaxel): 0.4±0.21 dfMT-positive keratinocytes/100 μm^2; animals with dfMTs ([1]; 100 nM paclitaxel, alone or with 25 μM EMD534085): 20%; number of dfMT-harboring keratinocytes per animal ([1]; 100 nM paclitaxel, alone or with 25 μM EMD534085, 96 hr): 0.4±0.21 cells/animal; animals with dfMT ([1]; 22 μM paclitaxel, 48 hr): ~ 45%; keratinocytes with dfMTs ([1]; 22 μM paclitaxel, 48 hr): 3.64±1.28 keratinocytes/100 μm^2; keratinocytes with dfMTs ([1]; 22 μM paclitaxel, 96 hr): 7.7±1.6 keratinocytes/100 μm^2; animals with dfMT ([1]; 22 μM paclitaxel, 96 hr (FIG. 1I)): ~ 90%; animals with dfMTs ([1]; 22 μM paclitaxel, alone or with 25 μM EMD534085): 65.22%; number of dfMT-harboring keratinocytes per animal ([1]; 22 μM paclitaxel, alone or with 25 μM EMD534085, 96 hr): 6.957±1.49 cells/animal; dfMT presence ([1]; 3 hr paclitaxel): never; axon branch number (cutaneous sensory axons; 100 nM paclitaxel, alone or with 48 hr EMD534085): 9.86±0.43 branches/50 μm; axon branch number (cutaneous sensory axons; 22 μM paclitaxel, alone or with EMD534085): 7.54±0.56 branches/50 μm; axon branches in the caudal fin (cutaneous sensory axons; cyba−/− fish): no change was found within the cyba−/− group; axon degeneration after stretching (cutaneous sensory axons; paclitaxel-treated and stretched cyba−/− mutants): rescued in paclitaxel-treated and stretched cyba−/− mutants; axon branches in the caudal fin (cutaneous sensory axons; wildtype): a decrease in axon branches; cell death ([2]; 100 nM paclitaxel, alone or with EMD534085, 96 hr): 0.18±0.18 dying cells/caudal fin; cell death ([2]; 22 μM paclitaxel, alone or with EMD534085, 96 hr): 0.6±0.3 dying cells/caudal fin
